Measurements: ChEMBL document CHEMBL4321836, “Discovery of BAY-298 and BAY-899: Tetrahydro-1,6-naphthyridine-Based, Potent, and Selective Antagonists of the Luteinizing Hormone Receptor Which Reduce Sex Hormone Levels in Vivo” (J Med Chem, 2019)

Columns and labels:
[1] = tested on: Rattus norvegicus; assay: Effect on folliculo-genesis in 4 day cycle of po dosed normally cycling female rat assessed as induction of cycle arrest in metestrus stage by observing vaginal smears administered once daily for 8 days and measured for 2 cycle-stage; format: functional, organism-based
[2] = tested on: Rattus norvegicus; assay: Downregulation of human luteinizing hormone-induced COX-2 mRNA expression in cetrorelix-treated iv dosed female rat after 2 hrs by Taqman probe based RT-PCR analysis; format: functional, organism-based
[3] = molecular target: T1, Lutropin-choriogonadotropic hormone receptor (Homo sapiens, UniProt P22888); assay: (§1) Negative allosteric modulation of human luteinizing hormone receptor assessed as Emax for Org 43553-induced agonist activity at 0.84 nM to 17 uM preincubated for 20 mins followed by 16 times EC80 of agonist addition and measured after 60 mins by cell based TR-FRET assay relative to control; conditions: at 0.00084 to 17 µM
T1 sequence (P22888 whole entry): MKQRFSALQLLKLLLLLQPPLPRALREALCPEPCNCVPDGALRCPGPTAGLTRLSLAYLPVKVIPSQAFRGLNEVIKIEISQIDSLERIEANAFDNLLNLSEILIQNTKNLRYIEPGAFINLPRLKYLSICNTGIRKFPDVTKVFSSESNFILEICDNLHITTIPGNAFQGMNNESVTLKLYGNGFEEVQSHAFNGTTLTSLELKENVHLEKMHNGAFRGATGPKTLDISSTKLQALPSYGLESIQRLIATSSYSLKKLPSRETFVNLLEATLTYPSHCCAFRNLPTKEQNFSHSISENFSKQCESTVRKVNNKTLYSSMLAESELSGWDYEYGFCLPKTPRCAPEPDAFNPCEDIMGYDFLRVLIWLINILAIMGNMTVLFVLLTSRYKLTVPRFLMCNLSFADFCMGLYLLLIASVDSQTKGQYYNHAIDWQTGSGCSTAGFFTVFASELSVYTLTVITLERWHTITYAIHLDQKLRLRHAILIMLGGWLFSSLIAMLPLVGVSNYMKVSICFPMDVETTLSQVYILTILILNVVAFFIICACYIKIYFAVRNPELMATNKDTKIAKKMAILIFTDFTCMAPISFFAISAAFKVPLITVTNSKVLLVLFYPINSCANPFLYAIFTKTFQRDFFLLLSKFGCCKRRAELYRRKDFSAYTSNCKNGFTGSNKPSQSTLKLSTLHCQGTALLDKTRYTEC

[4] = tested on: Rattus norvegicus; assay: Downregulation of estradiol level in po dosed proestrus staged-female rat serum administered once daily for 8 days and measured by radioimmunoassay method; format: functional, organism-based
[5] = molecular target: T1, Lutropin-choriogonadotropic hormone receptor; assay: as §1, with “glycoprotein human luteinizing hormone-induced” for “Org 43553-induced”, “100” for “16”
[6] = molecular target: T1, Lutropin-choriogonadotropic hormone receptor; assay: as §1, with “reduction in glycoprotein human luteinizing hormone-induced” for “Emax for Org 43553-induced”, “activity” for “activity at 0.84 nM to 17 uM”, “10” for “16”
[7] = molecular target: Luteinizing hormone/choriogondaotropin receptor (Macaca fascicularis, UniProt F5A8F7); assay: Antagonist activity at cynomolgus monkey luteinizing hormone receptor expressed in HEK293 cells assessed as reduction in agonist-induced cAMP production preincubated for 30 mins followed by agonist solution addition and measured after 30 mins by cell based TR-FRET assay
Sequence of Luteinizing hormone/choriogondaotropin receptor (F5A8F7 whole entry): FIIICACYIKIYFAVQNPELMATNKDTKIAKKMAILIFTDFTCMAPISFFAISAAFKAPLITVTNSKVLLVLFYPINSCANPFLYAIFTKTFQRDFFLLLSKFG

[8] = molecular target: T1, Lutropin-choriogonadotropic hormone receptor; assay: as §1, with “reduction in glycoprotein human luteinizing hormone-induced” for “Emax for Org 43553-induced”, “activity” for “activity at 0.84 nM to 17 uM”, “4” for “16”
[9] = tested on: Rattus norvegicus; assay: Downregulation of human luteinizing hormone-induced Egr-1 mRNA expression in cetrorelix-treated iv dosed female rat after 2 hrs by Taqman probe based RT-PCR analysis; format: functional, organism-based
[10] = molecular target: T1, Lutropin-choriogonadotropic hormone receptor; assay: (§2) Negative allosteric modulation of human luteinizing hormone receptor assessed as reduction in Org 43553-induced agonist activity preincubated for 20 mins followed by 16 times EC80 of agonist addition and measured after 60 mins by cell based TR-FRET assay relative to control
[11] = molecular target: T1, Lutropin-choriogonadotropic hormone receptor; assay: Negative allosteric modulation of human luteinizing hormone receptor assessed as Emax for Org 43553-induced agonist activity at 0.84 nM to 17 uM preincubated for 20 mins followed by 100 times EC80 of agonist addition and measured after 60 mins by cell based TR-FRET assay relative to control
[12] = tested on: Rattus norvegicus; assay: Downregulation of human luteinizing hormone-induced progesterone expression in plasma of cetrorelix-treated female rat at 27 mg/kg, iv after 2 hrs by radioimmunoassay method (reference value: 243 nM); format: functional
[13] = tested on: Rattus norvegicus; assay: Downregulation of 0.1 ug human luteinizing hormone-induced testosterone expression in plasma of cetrorelix-treated male rat at 14 mg/kg, iv after 2 hrs by radioimmunoassay method (reference value: 33.4 nM); format: functional
[14] = molecular target: T1, Lutropin-choriogonadotropic hormone receptor; assay: (§3) Negative allosteric modulation of human luteinizing hormone receptor assessed as reduction in Org 43553-induced agonist activity preincubated for 20 mins followed by 1 times EC80 of agonist addition and measured after 60 mins by cell based TR-FRET assay relative to control
[15] = tested on: Rattus norvegicus; assay: Downregulation of 0.3 ug human luteinizing hormone-induced testosterone expression in plasma of cetrorelix-treated male rat at 14 mg/kg, iv after 2 hrs by radioimmunoassay method (reference value: 33.4 nM); format: functional
[16] = Plasma concentration in female rat at 4.5 to 72 mg/kg, po administered once daily for 8 days and measured on day 8; format: ADME, organism-based
[17] = Free plasma concentration in female rat at 4.5 to 72 mg/kg, po administered once daily for 8 days; format: ADME, organism-based; conditions: in vivo, 192 h
[18] = tested on: Rattus norvegicus; assay: Downregulation of estradiol level in proestrus staged-female rat serum at 36 mg/kg, po administered once daily for 8 days and measured by radioimmunoassay method (reference value: 125 pmol/L); format: functional
[19] = tested on: Rattus norvegicus; assay: Downregulation of estradiol level in proestrus staged-female rat serum at 9 mg/kg, po administered once daily for 8 days and measured by radioimmunoassay method (reference value: 125 pmol/L); format: functional
[20] = molecular target: T1, Lutropin-choriogonadotropic hormone receptor; assay: as §2, with “glycoprotein human luteinizing hormone-induced” for “Org 43553-induced”, “100” for “16”
[21] = molecular target: T1, Lutropin-choriogonadotropic hormone receptor; assay: as §3, with “glycoprotein human luteinizing hormone-induced” for “Org 43553-induced”
[22] = molecular target: T1, Lutropin-choriogonadotropic hormone receptor; assay: Agonist activity at human luteinizing hormone receptor incubated for 60 mins by cell based TR-FRET assay
[23] = tested on: Rattus norvegicus; assay: Downregulation of human luteinizing hormone-induced testosterone expression in plasma of cetrorelix-treated iv dosed male rat at after 2 hrs by radioimmunoassay method; format: functional, organism-based
[24] = tested on: Rattus norvegicus; assay: Downregulation of estradiol level in proestrus staged-female rat serum at 4.5 mg/kg, po administered once daily for 8 days and measured by radioimmunoassay method (reference value: 125 pmol/L); format: functional
[25] = molecular target: T1, Lutropin-choriogonadotropic hormone receptor; assay: Negative allosteric modulation of human luteinizing hormone receptor assessed as Emax for Org 43553-induced agonist activity at 0.84 nM to 17 uM preincubated for 20 mins followed by 4 times EC80 of agonist addition and measured after 60 mins by cell based TR-FRET assay relative to control
[26] = molecular target: T1, Lutropin-choriogonadotropic hormone receptor; assay: as §1, with “glycoprotein human luteinizing hormone-induced” for “Org 43553-induced”, “10” for “16”
[27] = tested on: Rattus norvegicus; assay: Downregulation of human luteinizing hormone-induced progesterone expression in plasma of cetrorelix-treated female rat at 4.5 mg/kg, iv after 2 hrs by radioimmunoassay method (reference value: 243 nM); format: functional

- Emax [3]: 102%
- Emax [5]: 98%
- IC50 [6]: 2200 nM
- IC50 [7]: 78 nM
- IC50 [8]: 200 nM
- IC50 [10]: 1700 nM
- Emax [11]: 93%
- IC50 [14]: 650 nM
- concentration at 192 h [16]: 4 to 39 µM
- Cp(f) [17]: 0.024 µM
- IC50 [20]: 2500 nM
- IC50 [21]: 97 nM
- EC50 [22]: > 16000 nM
- Emax [25]: 102%
- Emax [26]: 106%
SMILES: O=C(Nc1ccc(Oc2ccc(F)cc2)cc1)N1CCc2ncccc2[C@@H]1c1ccc(Cl)cc1
- Activity [1]: Dose-dependent effect
- Activity [2]: Dose-dependent effect
- Activity [4]: Dose-dependent effect
- Activity [9]: Dose-dependent effect
- Activity [12]: 50 nM
- Activity [13]: 2.5 nM
- Activity [15]: 12.6 nM
- Activity [18]: 48 pmol/L
- Activity [19]: 80 pmol/L
- Activity [23]: Dose-dependent effect
- Activity [24]: 118 pmol/L
- Activity [27]: 76 nM
